One assay addresses T1, Notum S232A mutant (Homo sapiens, UniProt Q6P988, C330S/S232A).
T1 construct: comprising amino acids S81–T451 with a C330S mutation; inferred from HisTrap purification and imidazole elution; made in house
T1 sequence (Q6P988 81-451 S232A/C330S): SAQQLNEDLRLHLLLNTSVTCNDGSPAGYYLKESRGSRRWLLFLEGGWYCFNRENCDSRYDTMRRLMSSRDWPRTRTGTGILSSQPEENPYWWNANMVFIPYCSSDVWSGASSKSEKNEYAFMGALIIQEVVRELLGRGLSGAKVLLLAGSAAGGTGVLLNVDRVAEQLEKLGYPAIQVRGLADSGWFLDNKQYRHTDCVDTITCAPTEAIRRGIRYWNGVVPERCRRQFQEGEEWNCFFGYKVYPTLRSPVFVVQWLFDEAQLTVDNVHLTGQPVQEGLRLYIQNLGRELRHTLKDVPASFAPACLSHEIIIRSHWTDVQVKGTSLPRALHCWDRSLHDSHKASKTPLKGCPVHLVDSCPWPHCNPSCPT
The experiment in a line: ESI-QTOF intact protein mass spectrometry detection of covalent binding, mutant control. To be noted: 10 mM Hepes pH 7.4, 150 mM NaCl, room temperature, 1 h. The protocol: (§1) However, the crystals were grown and soaked under low pH (pH 4.2) and high salt (1.5 M ammonium sulphate) conditions. To measure covalent bonding and stability under near physiological conditions, we incubated Notum (deglycosylated) protein with 1 in buffer containing 10 mM Hepes, pH 7.4, 150 mM NaCl at room temperature for 1 h. The mixture was then subjected to ultrahigh-performance liquid chromatography (uHPLC) reversed-phase chromatography separation, followed by electrospray ionization quadrupole time-of-flight (ESI-QTOF) mass spectrometry analysis. […] There are some other minor peaks that may reflect incomplete removal of glycans. […] The calculated MW of 1 is 233.27 Da, while its methyl ester-hydrolyzed form (RW8) is 201.22 Da. […] To establish whether the covalent link is dependent on the nucleophile serine residue, we further used the Notum S232A mutant as a control, observing a mass of 44103.32 Da (Figure 2C). The decrease of 15.79 Da compared to the wild type is consistent with the expected serine to alanine mutation.
(§2) Reversed-phase chromatography was performed in-line prior to mass spectrometry using an Agilent 1290 uHPLC system (Agilent Technologies inc. USA). […] Protein intact mass was determined using a 6530 ESI-QTOF mass spectrometer (Agilent Technologies Inc. USA). […]

The target in the next assay is T2, Notum (glycosylated) (Homo sapiens, UniProt Q6P988, C330S).
T2 construct: comprising amino acids S81–T451 with a C330S mutation; inferred from HisTrap purification and imidazole elution; made in house
T2 sequence (Q6P988 81-451 C330S): T1 sequence (Q6P988 81-451 S232A/C330S) with A152S
The experiment in a line: Thermal shift assay (differential scanning fluorimetry). The format is binding. To be noted: for ΔTm at 1000 µM: compound 1 mM, read-out: max ΔTm; for ΔTm: compound ∼30 μM (31 μM in Figure 3). The procedure: To further characterize Notum 1 binding, especially regarding the importance of the methyl ester warhead of 1, we used a thermal shift assay (also known as differential scanning fluorimetry) to compare the binding properties of 1 with its methyl-less acid form, 4-indolinyl-4-oxobutanoic acid (2). The thermal shift assay is a reliable label-free strategy to detect small molecule–protein binding by measuring protein melting temperature (Tm) changes.[39]−[41] A ΔTm of 2 °C or more indicates a small molecule binding to the target protein.[42] Notum was incubated with each compound in the presence of a fluorescent indicator, […], and the melting curves were recorded. 1 and 2, despite only differing by a single methyl group, yield highly different Notum melting curves (Figure 3). […] To establish the dose-dependent thermal shift responses, we performed a twofold serial dilution of the compounds.
Thermal shift assays were carried out in a semiskirted 96-well PCR plate (4-Titude). Each well contains 3 μg of glycosylated Notum protein, 3× SYPRO Orange dye (Thermo Fisher Scientific), and compounds at various concentrations and adjusted to a final volume of 50 μL with assay buffer (10 mM Hepes, pH7.4, 150 mM NaCl, and 2% DMSO). The samples were heated in an Mx3005p qPCR machine (Stratagene, Agilent Technologies) from room temperature at a rate of 1 °C/min for 74 cycles. Fluorescence changes were monitored with excitation and emission wavelengths at 492 and 610 nm, respectively.
On the technique in general: Differential scanning fluorimetry follows unfolding on heating by fluorescence.

A further assay addresses T3, Notum (deglycosylated) (Homo sapiens, UniProt Q6P988, C330S).
T3 construct: comprising amino acids S81–T451 with a C330S mutation; inferred from HisTrap purification and imidazole elution; made in house
T3 sequence (Q6P988 81-451 C330S): T1 sequence (Q6P988 81-451 S232A/C330S) with A152S
The experiment in a line: ESI-QTOF intact protein mass spectrometry detection of covalent binding. To be noted: 10 mM Hepes pH 7.4, 150 mM NaCl, room temperature, 1 h. The protocol: as §1, §2

Assay [1] deals with T4, Notum (Homo sapiens, UniProt Q6P988, C330S).
T4 construct: comprising amino acids S81–T451 with a C330S mutation; inferred from HisTrap purification and imidazole elution; made in house
T4 sequence (Q6P988 81-451 C330S): T1 sequence (Q6P988 81-451 S232A/C330S) with A152S
The experiment in a line: Notum OPTS activity assay (cell-free biochemical). The source says:
Notum is a druggable target for Wnt signaling modulation.[23] We have previously determined a number of structures of Notum inhibitor complexes.[21],[22],[24],[25],[27],[28] All of these inhibitors bind noncovalently at the Notum enzyme catalytic pocket, where the natural substrate PAM binds. For searching covalent inhibitors, we used this noncovalent inhibitor binding information to limit compound docking into the enzyme active site. A virtual library of approximately 1.5 million compounds (ChemDiv) was filtered to generate 534,804 candidates for docking with a Notum structure (PDB code 6T2K) by Schrödinger Glide SP[37],[38] (Experimental Section). Resulting 1330 compounds with score −9 or better were subject to manual inspection and availability check. Finally, 952 compounds were purchased and experimentally screened using a cell-free trisodium 8-octanoyloxypyrene-1,3,6-trisulfonate (OPTS) biochemical assay.[22] […] The soaked crystals were harvested, and diffraction data were collected at the Diamond Light Source. The structures were determined by molecular replacement and refined with Refmac to screen for difference map peaks (Experimental Section). Chemical structures were then fitted into the difference maps with the aim of identifying covalent binders. Methyl 4-indolinyl-4-oxobutanoate (1) was identified as the only covalent binder to emerge from the screen (Figure 1). The 1 soaked crystal diffracted to 1.2 Å resolution with a P2_12_12_1 space group containing one enzyme-inhibitor complex in an asymmetric unit (for data collection and refinement statistics, see Supporting Information, Table S1). The overall structure maintained the characteristic apo Notum fold (Figure 1A), with a α/β hydrolase core domain (β1-8 strands and αB, C, and F helices) and a moveable lid domain (αA, D, and E helices). 1 is composed of an indole ring linked to an oxo-butyric acid methyl ester (Figure 1B). The methyl ester-hydrolyzed 1 (with PDB identifier RW8) is an excellent fit in the strong electron density that extends from the nucleophile residue S232 (Figure 1C). The electron density for the RW8 is of equally high quality to that of the surrounding Notum amino acids. […] The movable lid domain sits between the “open” (PDB code 4UYU) and “closed” (PDB code 4UZ1) conformations with obvious movements of the flexible β6_αD loop (Figure 1D). When superimposed with the natural substrate, PAM-bound, structure (PDB code 4UZQ), the RW8 overlaps with the PAM within the enzyme pocket (Figure 1E). The indole ring is located toward the bottom of the pocket, while the butyric acid head group is well-aligned with the PAM head (Figure 1E). Residues that form the base of the pocket (P287–I291) are positioned closer to the RW8 indole ring than in the PAM-bound structure. For example, P287 Cα has moved 1.7 Å toward the pocket center (Figure 1E) to optimize interactions with the RW8 indole ring, which extends less far into the pocket than PAM.
The Notum inhibitory potencies of these compounds were assessed by determining OPTS IC50 values, which can be used to compare the relative activities of covalent inhibitors under carefully regulated conditions.[43] […] When a phenyl ring is added to produce benzyl ester, 5, the IC50 is also slightly better than 1.
The OPTS activity assay has been described in previous reports.[24],[25] Briefly, the test compounds, the reporter substrate OPTS (Sigma), and the recombinant Notum protein were dispensed into 384-well plates (Greiner) using a Labcyte Echo 550 acoustic liquid handler and incubated 40 min in room temperature. The endpoint fluorescence was measured on a PheraSTAR FSX microplate reader with an excitation wavelength of 485 nm and an emission wavelength of 520 nm. The compound IC50 values were calculated from curves using a 4PL fit.

Assay [2] deals with T4, Notum. The experiment in a line: Cell-based TCF/LEF reporter (luciferase) assay, HEK293 STF cells with exogenous Wnt3a and Notum. To be noted: HEK293 TCF/LEF luciferase reporter cell line. The protocol: Selected compounds were further investigated for inhibition of Notum activity in a Wnt/β-catenin signaling pathway TCF/LEF reporter (luciferase) HEK293 cell line with exogenous Wnt3a and Notum.[22],[25]
The cellular Wnt signaling functional assay has been described in previous reports.[24],[25] Briefly, the reporter cell plate containing stable HEK293 STF cells[53] (1 × 10^4 cells per well in 384-well microplates) carrying the Super Top Flash firefly luciferase reporter was prepared (overnight at 37 °C). Compounds and Notum protein were mixed for 10 min before the recombinant Wnt-3A was added and incubated for 1 h at room temperature. Then, the mixture from the compound plates was added to reporter cell plates and incubation overnight at 37 °C. For luciferase assay, steady-glo luciferase assay buffer (20 μL, Promega) was applied to the cell plates using the CyBio, the luminescence was measured on a PHERAstar FSXmicroplate reader with an excitation wavelength of 458 nm and an emission wavelength of 520 nm.

Setting [3] is: mean ± s.d. (n = 4), 40 min incubation at room temperature.

Molecules are shown by their SMILES. Positions count from the first letter of the chain named.

Broadly, the ΔTm is the shift of the melting midpoint relative to a reference. In general, IC50 refers to the midpoint of a concentration-inhibition curve. Low values mean greater potency, high ones weaker potency. Usually EC50 stands for the concentration at which the effect is half-maximal. Read a high EC50 as a need for much substance. Regarding `COC(=O)CCC(=O)N1CCc2ccccc21` [Compound 1, Methyl 4-indolinyl-4-oxobutanoate], the “mass change of treated Notum S232A mutant” value on Notum S232A mutant was “no mass change”. Moreover, the ΔTm at 8 µM on Notum (glycosylated) (compound 8 μM, start of significant changes) came out at 2 °C. Also, on Notum (glycosylated), the ΔTm at 1000 µM stood at 10 °C and the ΔTm came to 5 °C. Moreover, the “mass increase of treated Notum compared to untreated Notum” value on Notum (deglycosylated) is on record as 201.25 Da. This compound registered an IC50 on Notum [1] (setting [3]) of 93 ± 20 nM. Further, at Notum [2], a half-maximal response (EC50) required 530 ± 47 nM.

For the compound `O=C(O)CCC(=O)N1CCc2ccccc21` [Compound 2, 4-indolinyl-4-oxobutanoic acid], on Notum (glycosylated), the ΔTm at 1000 µM is 2.5 °C and the ΔTm was 1 °C. Half-maximal inhibition against Notum [1] (setting [3]) (IC50) required 3100 ± 920 nM.

At Notum [1] (setting [3]), `CCOC(=O)CCC(=O)N1CCc2ccccc21` [Compound 3] yielded an IC50 of 190 ± 45 nM. For the same compound, a half-maximal effect on Notum [2] (EC50) was put at 300 ± 60 nM.

At Notum [1] (setting [3]), `O=C(CCC(=O)N1CCc2ccccc21)OCC(F)F` [Compound 4] gave an IC50 of 12 ± 2.8 nM.

On to `O=C(CCC(=O)N1CCc2ccccc21)OCc1ccccc1` [Compound 5], for which the midpoint of inhibition on Notum [1] (setting [3]), the IC50, lay at 64 ± 14 nM.

`CC(C)OC(=O)CCC(=O)N1CCc2ccccc21` [Compound 6] showed an IC50 against Notum [1] (setting [3]) of 4300 ± 400 nM.

As a reminder, the inhibition is the percentage by which the read-out fell short of the control. Regarding `CC(C)(C)OC(=O)CCC(=O)N1CCc2ccccc21` [Compound 7], on Notum [1] (@ 10 μM, read-out: Notum OPTS % inhibition (% I)), the inhibition at 10 µM is less than 10%. Also, the “Notum OPTS IC50” value at Notum [1] (setting [3]) is “inactive ^b”.
